# Assays:
# [1] = test system: mouse; test: Mouse pentylenetetrazol infusion test; assay type: in vivo; settings: 1 h, read-out: ED50 in pentylenetetrazol infusion test (time to second twitch)
# [2] = test system: male Han Wistar rats; test: Rat maximal electroshock test (MES); assay type: in vivo; settings: oral, 2 hr prior to test; for ED50: Rattus norvegicus, suspension in 0.25% methylcellulose, 200 mA, 200 millisec, read-out: MES ED50 (hind limb extension); for therapeutic index (ratio of the ataxia ED50 and MES ED50): rat
# Method: For example, male Han Wistar rats (150-200 grms) were dosed orally with a suspension of the test compound in 0.25% methylcellulose 2 hr prior to test. A visual observation is carried out just prior to testing for the presence of ataxia. Using auricular electrodes a current of 200 mA, duration 200 millisec, is applied and the presence or absence of hind limb extension noted.
# [3] = test system: Male C57BL/6 mice; test: Mouse MPTP induced neurotoxicity (striatal dopamine depletion); assay type: in vivo; settings: 30 minutes before each MPTP injection, striata seven days after MPTP
# Method: The mouse MPTP model is generally used as a model of Parkinson's disease.
# Male C57BL/6 mice received four intraperitoneal injections of MPTP.HCl (15 mg of free base per kg; Research Biochemicals) in saline at 2 hour intervals. Control mice received saline only. The test-compound was administered as four subcutaneous injections in olive oil at 2 hour intervals, 30 minutes before each MPTP injection.
# Seven days after MPTP injection the mice were sacrificed and the striata dissected out, immediately frozen, and stored at −80° C. until analysis. On the day of assay issue samples were sonicated in 10 volume (wt./vol.) of 0.1 M perchloric acid containing 1.9 mM sodium hydrosulfite and 1.6 mg/ml DBA-HBr. After centrifugation (2800 g, 10 min at room temperature) and filtration (pore size 0.5 μm, Millipore), the supernatant was transferred to a vial and placed in the automatic sampler (M231XL, Gilson). Dopamine content was measured by high performance liquid chromatography. A compound of formula (I) produced 75% protection against dopamine depletion when dosed at 3 mg/kg (×4) and 98% protection when dosed at 10 mg/kg (×4).
# [4] = molecular target: recombinant human brain type IIA Na+ channel expressed in Chinese hamster ovary cells (Homo sapiens, UniProt Q99250); test: Whole-cell voltage-clamp on voltage-gated sodium channels
# [5] = test system: rat; test: Rat intraplantar carrageenan model of hyperalgesia and inflammation; assay type: in vivo; settings: oral; for ED50: Rattus norvegicus, 30 minutes prior to carrageenan (100 μl of 2% intraplantar), read at three hours, read-out: ED50 for inhibition of the carrageenan-induced reduction in weight bearing
# Method: Three hours after intraplantar carrageenan administration (100 μl of 2%) in the rat there is a reduction in weight bearing on the inflamed paw and an increase in paw volume consistent with acute hyperalgesia and inflammation.
# recombinant human brain type IIA Na+ channel expressed in Chinese hamster ovary cells, sequence (Q99250 whole entry): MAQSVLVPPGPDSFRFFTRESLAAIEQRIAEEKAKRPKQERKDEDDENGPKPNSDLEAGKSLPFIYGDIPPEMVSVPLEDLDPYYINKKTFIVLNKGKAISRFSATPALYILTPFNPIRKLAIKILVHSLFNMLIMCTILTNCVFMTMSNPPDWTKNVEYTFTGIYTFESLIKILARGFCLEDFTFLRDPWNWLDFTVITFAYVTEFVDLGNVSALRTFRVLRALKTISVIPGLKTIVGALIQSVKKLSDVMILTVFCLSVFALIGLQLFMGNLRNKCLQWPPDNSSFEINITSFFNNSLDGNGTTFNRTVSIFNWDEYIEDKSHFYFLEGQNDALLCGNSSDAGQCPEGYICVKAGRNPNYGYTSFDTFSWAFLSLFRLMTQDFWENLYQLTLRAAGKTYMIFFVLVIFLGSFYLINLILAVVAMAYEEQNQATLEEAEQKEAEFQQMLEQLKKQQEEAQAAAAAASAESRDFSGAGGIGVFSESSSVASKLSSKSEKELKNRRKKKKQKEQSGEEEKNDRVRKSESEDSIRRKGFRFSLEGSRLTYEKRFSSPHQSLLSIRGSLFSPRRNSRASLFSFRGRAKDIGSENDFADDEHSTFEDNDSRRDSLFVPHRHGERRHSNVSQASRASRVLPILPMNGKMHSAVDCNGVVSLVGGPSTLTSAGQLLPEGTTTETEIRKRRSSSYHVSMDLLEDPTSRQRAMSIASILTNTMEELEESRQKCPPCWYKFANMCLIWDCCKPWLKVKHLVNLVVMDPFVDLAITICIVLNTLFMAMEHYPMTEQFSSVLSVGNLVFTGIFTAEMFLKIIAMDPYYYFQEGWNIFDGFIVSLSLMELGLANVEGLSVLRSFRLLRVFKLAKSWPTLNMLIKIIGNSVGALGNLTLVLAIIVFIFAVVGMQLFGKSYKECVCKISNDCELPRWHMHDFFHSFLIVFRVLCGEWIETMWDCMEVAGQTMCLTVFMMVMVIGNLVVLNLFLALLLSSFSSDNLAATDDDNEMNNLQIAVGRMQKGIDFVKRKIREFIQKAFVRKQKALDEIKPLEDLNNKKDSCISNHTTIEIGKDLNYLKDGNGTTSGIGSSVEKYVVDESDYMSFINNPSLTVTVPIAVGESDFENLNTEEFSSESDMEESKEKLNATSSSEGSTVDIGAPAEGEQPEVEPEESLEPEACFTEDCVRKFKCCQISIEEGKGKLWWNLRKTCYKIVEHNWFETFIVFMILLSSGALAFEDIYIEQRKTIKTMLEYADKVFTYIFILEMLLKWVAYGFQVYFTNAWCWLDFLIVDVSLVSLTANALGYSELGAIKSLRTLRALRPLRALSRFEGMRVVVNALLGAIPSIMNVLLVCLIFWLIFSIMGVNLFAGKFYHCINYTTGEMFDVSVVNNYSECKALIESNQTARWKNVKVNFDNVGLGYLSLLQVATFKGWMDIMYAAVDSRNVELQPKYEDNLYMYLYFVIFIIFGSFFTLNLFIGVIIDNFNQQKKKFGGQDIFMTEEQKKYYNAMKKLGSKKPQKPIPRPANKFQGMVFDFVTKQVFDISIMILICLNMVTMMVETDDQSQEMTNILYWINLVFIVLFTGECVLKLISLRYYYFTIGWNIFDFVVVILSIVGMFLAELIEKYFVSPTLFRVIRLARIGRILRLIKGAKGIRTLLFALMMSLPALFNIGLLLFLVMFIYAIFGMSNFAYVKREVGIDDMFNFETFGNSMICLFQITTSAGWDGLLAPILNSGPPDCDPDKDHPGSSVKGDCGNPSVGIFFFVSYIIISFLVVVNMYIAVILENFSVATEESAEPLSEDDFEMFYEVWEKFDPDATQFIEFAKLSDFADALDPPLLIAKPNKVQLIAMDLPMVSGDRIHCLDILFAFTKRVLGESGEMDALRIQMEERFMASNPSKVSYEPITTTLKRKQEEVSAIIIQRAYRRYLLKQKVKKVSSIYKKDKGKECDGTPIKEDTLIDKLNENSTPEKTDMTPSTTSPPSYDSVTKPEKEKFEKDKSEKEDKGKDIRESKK
IC50 [4],SMILES,ED50 [1],ED50 [2],therapeutic index (ratio of the ataxia ED50 and MES ED50) [2],protection against dopamine depletion ([3]; 3 mg/kg (×4) subcutaneous),protection against dopamine depletion ([3]; 10 mg/kg (×4) subcutaneous),state selectivity (potency at inactivated state versus resting state) [4],"reduction in paw volume (anti-inflammatory activity) ([5]; 30 mg/kg, 30 minutes prior to carrageenan)",ED50 [5]
785 µM,"Nc1ncnnc1-c1cc(Cl)cc(Cl)c1Cl [compound of formula (I), 5-amino-6-[2,3,5-trichlorophenyl]-1,2,4-triazine]",3.8 mg/kg,1.7 mg/kg,23.7,75%,98%,approximately 70 fold,50%,7.5 mg/kg
,"Nc1nnc(-c2cccc(Cl)c2Cl)c(N)n1 [lamotrigine, 3,5diamino-6-(2,3dichlorophenyl)-1,2,4-triazine, reference compound]",8.4 mg/kg,6.1 mg/kg,3.3,,,approximately 30 fold,,23.5 mg/kg
